# Results published in patent publication US9266924B2, “Cyclopentapeptide derivatives and uses thereof” (TECHNISCHE UNIVERSITÄT MÜNCHEN, priority 2010, dated 2016).
# Where a SMILES comes first, the peptide text is derived from it. Side-chain parts run from the residue outwards. [ ]: non-standard residue; d: D form. The star is where a group is joined. DOTA(Ga) = O=C1CN2CCN3CCN(CC(=O)*)CCN(CC2)CC(=O)[O][Ga]([O]1)[O]C(=O)C3; DOTA(In) = O=C1CN2CCN3CCN(CC(=O)*)CCN(CC2)CC(=O)[O][In]([O]1)[O]C(=O)C3; DOTA = O=C(O)CN1CCN(CC(=O)O)CCN(CC(=O)*)CCN(CC(=O)O)CC1; 2Nal = N[C@@H](Cc1ccc2ccccc2c1)C(=O)O; dNMeOrn = CN[C@H](CCCN)C(=O)O; 4Abz = Nc1ccc(C(=O)O)cc1; AEEA = NCCOCCOCC(=O)O; Ava = NCCCCC(=O)O; βAla = NCCC(=O)O
# Biological target: T1, human-CXCR4 (Homo sapiens, UniProt P61073)
# T1 construct: tested first at Jurkat cells that endogenously express the CXCR4 receptor; endogenous in cells; host or cells: Jurkat cells (whole cells in suspension)
# Assay: Competition binding assay on Jurkat cells with 125I-CPCR4 as radiotracer
# Settings: IC50 (Exemplary Binding Study A), Jurkat cells, 125I-CPCR4 tracer, n=4
# Description: For receptor binding assays cells may be resuspended in PBS/0.2% BSA. A total of 200 μl of the suspension containing 400,000 Jurkat cells may be incubated with 25 μl of the tracer solution (containing 3.1 kBq, approx. 0.1 nM) and 25 μl of the diluent or the competitor at different concentrations. […] After shaking for 2 h at room temperature, the incubation may be terminated by centrifugation at 1300 rpm for 5 min, Cell pellets may be washed once with cold PBS followed by a second centrifugation step. Cell bound radioactivity may be determined by using a gamma counter. Experiments may be repeated 2-3 times in triplicates. IC50 values of the compounds may be calculated by nonlinear regression using GraphPad Prism (GraphPad Prism 4.0 Software, Inc., San Diego, Calif., USA). Each data point may be the average of three determinations.
# Cells were resuspended in 0.2% PBS/0.2% BSA. A total of 200 μL of the suspension containing 2×10^6 Jurkat cells/ml or 400000 cell/200 μl were incubated with 25 μL of the tracer solution (containing 100,000 cpm, approx. 0.1 nM) and 25 μL of competitor dissolved in ultra pure H2O or, if necessary, up to 20% DMSO at different concentrations. The tracer concentration was varied from 5 to 500 pM.
# After 2 h at room temperature, the incubation was terminated by centrifugation at 2000 rpm for 5 min. Cell pellets were washed once with 400 μL cold PBS. Cell bound radioactivity was determined by using a gamma counter. Experiments were repeated three times in triplicates. IC50 values of the peptides were calculated by nonlinear regression using GraphPad Prism (GraphPad Prism 4.0 Software, San Diego, Calif., USA).
# The cell concentration was determined with a Casy cell counter (500 cell suspension in 10 ml Casy solution (Innovartis AG, Casy technology). The desired cell suspension volume was transferred into an Eppendorf tube, centrifuged, the supernatant was discarded and the pellet was resuspended in 20 ml 0.2% PBS-BSA-buffer.
# Subsequently, the tubes were placed on a shaker for 2 h (200 mot/min). Thereafter, the tubes were centrifuged for 5 min at 2000 rpm and the supernatant carefully removed. The pellets were washed with 400 μl PBS and the tubes were again centrifuged for 5 min at 2000 rpm. After the supernatant was carefully removed, the tubes were measured in a gamma counter. All data were analyzed with a suitable software package, i.e. GraphPad Prism 4 with the following parameters: Equation: Sigmoidal dose-response, Y=Bottom+(Top−Bottom)/(1+10^((Log EC50−X))); X is the logarithm of concentration; Y is the response; Y starts at bottom and goes to top with a sigmoid shape.
# T1 sequence (P61073 whole entry): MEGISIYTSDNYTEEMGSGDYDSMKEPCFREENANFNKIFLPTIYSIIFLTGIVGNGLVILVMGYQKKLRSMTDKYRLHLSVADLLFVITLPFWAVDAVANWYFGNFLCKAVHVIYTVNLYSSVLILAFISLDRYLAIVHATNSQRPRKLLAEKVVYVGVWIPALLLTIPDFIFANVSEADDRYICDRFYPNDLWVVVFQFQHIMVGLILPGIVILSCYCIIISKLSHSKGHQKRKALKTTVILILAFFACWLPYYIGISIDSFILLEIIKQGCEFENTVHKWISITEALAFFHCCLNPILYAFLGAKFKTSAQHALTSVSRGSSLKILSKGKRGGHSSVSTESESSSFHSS
row,Compound,IC50 [nM]
1,"CN1C(=O)[C@@H](Cc2ccc(O)cc2)NC(=O)CNC(=O)[C@H](Cc2ccc3ccccc3c2)NC(=O)[C@H](CCCNC(=N)N)NC(=O)[C@H]1CCCNC(=O)c1ccc(CNC(=O)CN2CCN(CC(=O)O)CCN(CC(=O)O)CCN(CC(=O)O)CC2)cc1 (single isomer, unassigned) [Compound 9, yorn′(AMBS, DOTA, Ga)RNalG]",4.78 ± 0.73

# Same assay, conditions: IC50 [nM] (Binding Data), Jurkat cells, 125I-CPCR4 tracer, 2 h at room temperature
row,Compound,IC50 [nM]
1,"CN1C(=O)[C@@H](Cc2ccc(O)cc2)NC(=O)CNC(=O)[C@H](Cc2ccc3ccccc3c2)NC(=O)[C@H](CCCNC(=N)N)NC(=O)[C@H]1CCCNC(=O)c1ccc(CNC(=O)CN2CCN(CC(=O)O)CCN(CC(=O)O)CCN(CC(=O)O)CC2)cc1 (single isomer, unassigned) [Compound 9, yorn′(AMBS, DOTA, Ga)RNalG]",7 ± 4.25

# Same assay, conditions: Jurkat cells, 125I-CPCR4 tracer, 2 h at room temperature; read-out: IC50 [nM] (Binding Data)
row,Compound,IC50 [nM]
1,"CN1C(=O)[C@@H](Cc2ccc(O)cc2)NC(=O)CNC(=O)[C@H](Cc2ccc3ccccc3c2)NC(=O)[C@H](CCCNC(=N)N)NC(=O)[C@H]1CCCNC(=O)CNC(=O)COCCOCCNC(=O)CN1CCN2CCN3CCN(CC1)CC(=O)[O][In]([O]C(=O)C2)[O]C(=O)C3 [Compound 26, yorn′(G, Trigas, DOTA, In)RNalG] (cyclo([2Nal]G[dY][dNMeOrn]([Gly-AEEA-DOTA(In)])R))",457
2,"CN1C(=O)[C@@H](Cc2ccc(O)cc2)NC(=O)CNC(=O)[C@H](Cc2ccc3ccccc3c2)NC(=O)[C@H](CCCNC(=N)N)NC(=O)[C@H]1CCCNC(=O)CN1CCN2CCN3CCN(CC1)CC(=O)[O][In]([O]C(=O)C2)[O]C(=O)C3 [Compound 20, yorn′(DOTA, In)RNalG] (cyclo([2Nal]G[dY][dNMeOrn](DOTA(In))R))",> 1000
3,"CN1C(=O)[C@@H](Cc2ccc(O)cc2)NC(=O)CNC(=O)[C@H](Cc2ccc3ccccc3c2)NC(=O)[C@H](CCCNC(=N)N)NC(=O)[C@H]1CCCNC(=O)CCCCNC(=O)CCCCNC(=O)CN1CCN2CCN3CCN(CC1)CC(=O)[O][In]([O]C(=O)C2)[O]C(=O)C3 [Compound 23, yorn′(AVS, AVS, DOTA, In)RNalG] (cyclo([2Nal]G[dY][dNMeOrn]([Ava-Ava-DOTA(In)])R))",123 ± 25
4,"CN1C(=O)[C@@H](Cc2ccc(O)cc2)NC(=O)CNC(=O)[C@H](Cc2ccc3ccccc3c2)NC(=O)[C@H](CCCNC(=N)N)NC(=O)[C@H]1CCCNC(=O)CN1CCN2CCN3CCN(CC1)CC(=O)[O][Ga]([O]C(=O)C2)[O]C(=O)C3 [Compound 21, yorn′(DOTA, Ga)RNalG] (cyclo([2Nal]G[dY][dNMeOrn](DOTA(Ga))R))",289
5,"CN1C(=O)[C@@H](Cc2ccc(O)cc2)NC(=O)CNC(=O)[C@H](Cc2ccc3ccccc3c2)NC(=O)[C@H](CCCNC(=N)N)NC(=O)[C@H]1CCCNC(=O)CCCCNC(=O)CCCCNC(=O)CN1CCN2CCN3CCN(CC1)CC(=O)[O][Ga]([O]C(=O)C2)[O]C(=O)C3 [Compound 24, yorn′(AVS, AVS, DOTA, Ga)RNalG] (cyclo([2Nal]G[dY][dNMeOrn]([Ava-Ava-DOTA(Ga)])R))",89.7 ± 18.3
6,"CN1C(=O)[C@@H](Cc2ccc(O)cc2)NC(=O)CNC(=O)[C@H](Cc2ccc3ccccc3c2)NC(=O)[C@H](CCCNC(=N)N)NC(=O)[C@H]1CCCNC(=O)c1ccc(NC(=O)CN2CCN3CCN4CCN(CC2)CC(=O)[O][Ga]([O]C(=O)C3)[O]C(=O)C4)cc1 [Compound 17, yorn′(ABS, DOTA, Ga)RNalG] (cyclo([2Nal]G[dY][dNMeOrn]([4Abz-DOTA(Ga)])R))",11.5 ± 4.4
7,"CN1C(=O)[C@@H](Cc2ccc(O)cc2)NC(=O)CNC(=O)[C@H](Cc2ccc3ccccc3c2)NC(=O)[C@H](CCCNC(=N)N)NC(=O)[C@H]1CCCNC(=O)c1ccc(NC(=O)CCCCNC(=O)CN2CCN(CC(=O)O)CCN(CC(=O)O)CCN(CC(=O)O)CC2)cc1 [Compound 18, yorn′(ABS, AVS, DOTA)RNalG]",121 ± 17
8,"CN1C(=O)[C@@H](Cc2ccc(O)cc2)NC(=O)CNC(=O)[C@H](Cc2ccc3ccccc3c2)NC(=O)[C@H](CCCNC(=N)N)NC(=O)[C@H]1CCCNC(=O)c1ccc(NC(=O)CN2CCN(CC(=O)O)CCN(CC(=O)O)CCN(CC(=O)O)CC2)cc1 (single isomer, unassigned) [Compound 13, yorn′(ABS, DOTA, Ga)RNalG]",11.5 ± 4.4
9,"CN1C(=O)[C@@H](Cc2ccc(O)cc2)NC(=O)CNC(=O)[C@H](Cc2ccc3ccccc3c2)NC(=O)[C@H](CCCNC(=N)N)NC(=O)[C@H]1CCCNC(=O)c1ccc(NC(=O)CCNC(=O)CN2CCN(CC(=O)O)CCN(CC(=O)O)CCN(CC(=O)O)CC2)cc1 [Compound 1, yorn′(ABS, betaAla, DOTA)RNalG] (cyclo([dY][dNMeOrn]([4Abz-βAla-DOTA])R[2Nal]G))",37.6 ± 14.7
10,"CN1C(=O)[C@@H](Cc2ccc(O)cc2)NC(=O)CNC(=O)[C@H](Cc2ccc3ccccc3c2)NC(=O)[C@H](CCCNC(=N)N)NC(=O)[C@H]1CCCNC(=O)c1ccc(NC(=O)CN2CCN3CCN4CCN(CC2)CC(=O)[O][In]([O]C(=O)C3)[O]C(=O)C4)cc1 [Compound 16, yorn′(ABS, DOTA, In)RNalG] (cyclo([2Nal]G[dY][dNMeOrn]([4Abz-DOTA(In)])R))",105
11,"CN1C(=O)[C@@H](Cc2ccc(O)cc2)NC(=O)CNC(=O)[C@H](Cc2ccc3ccccc3c2)NC(=O)[C@H](CCCNC(=N)N)NC(=O)[C@H]1CCCNC(=O)c1ccc(NC(=O)CN2CCN(CC(=O)O)CCN(CC(=O)O)CCN(CC(=O)O)CC2)cc1 [Compound 15, yorn′(ABS, DOTA)RNalG]",335
12,"CN1C(=O)[C@@H](Cc2ccc(O)cc2)NC(=O)CNC(=O)[C@H](Cc2ccc3ccccc3c2)NC(=O)[C@H](CCCNC(=N)N)NC(=O)[C@H]1CCCNC(=O)c1ccc(NC(=O)CNC(=O)CN2CCN(CC(=O)O)CCN(CC(=O)O)CCN(CC(=O)O)CC2)cc1 [Compound 10, yorn′(ABS, G, DOTA)RNalG]",88.8 ± 18.4
13,"yorn′(ABS, betaAla, DOTA, In)RNalG [Compound 4]",30.4 ± 3.68

# Same assay, conditions: read-out: IC50 [nM] (Binding Data)
row,Compound,IC50 [nM]
1,"CN1C(=O)[C@@H](Cc2ccc(O)cc2)NC(=O)CNC(=O)[C@H](Cc2ccc3ccccc3c2)NC(=O)[C@H](CCCNC(=N)N)NC(=O)[C@H]1CCCNC(=O)c1ccc(NC(=O)CCCCCNC(=O)CN2CCN(CC(=O)O)CCN(CC(=O)O)CCN(CC(=O)O)CC2)cc1 [Compound 14, yorn′(ABS, Ahx, DOTA)RNalG]",> 1000
2,"CN1C(=O)[C@@H](Cc2ccc(O)cc2)NC(=O)CNC(=O)[C@H](Cc2ccc3ccccc3c2)NC(=O)[C@H](CCCNC(=N)N)NC(=O)[C@H]1CCCNC(=O)c1ccc(CNC(=O)CN2CCN(CC(=O)O)CCN(CC(=O)O)CCN(CC(=O)O)CC2)cc1 (single isomer, unassigned) [Compound 8, yorn′(AMBS, DOTA, In)RNalG]",44.9 ± 10.4
